Measured values reported in article PMC11768653, “Characterization of the Phosphotransferase from Bacillus subtilis 1101 That Is Responsible for the Biotransformation of Zearalenone” (Toxins, 2025).

Target: T1, ZPH1101 (Bacillus subtilis, UniProt O34796)
T1 construct: gene yvkC; full-length zph1101 in pET29a, N-terminal 6xHis, E. coli BL21(DE3), Ni-NTA, 90 kDa
Assay: HPLC of residual ZEA, Michaelis-Menten fit
Type: biochemical
Settings: ATP, Mg2+; pH 8.0, 45 °C
Method: HPLC of residual ZEA, Michaelis-Menten fit on ZPH1101 | Michaelis constant (Km), and catalytic constant (kcat) were calculated through fitting to be

T1 sequence (O34796 whole entry): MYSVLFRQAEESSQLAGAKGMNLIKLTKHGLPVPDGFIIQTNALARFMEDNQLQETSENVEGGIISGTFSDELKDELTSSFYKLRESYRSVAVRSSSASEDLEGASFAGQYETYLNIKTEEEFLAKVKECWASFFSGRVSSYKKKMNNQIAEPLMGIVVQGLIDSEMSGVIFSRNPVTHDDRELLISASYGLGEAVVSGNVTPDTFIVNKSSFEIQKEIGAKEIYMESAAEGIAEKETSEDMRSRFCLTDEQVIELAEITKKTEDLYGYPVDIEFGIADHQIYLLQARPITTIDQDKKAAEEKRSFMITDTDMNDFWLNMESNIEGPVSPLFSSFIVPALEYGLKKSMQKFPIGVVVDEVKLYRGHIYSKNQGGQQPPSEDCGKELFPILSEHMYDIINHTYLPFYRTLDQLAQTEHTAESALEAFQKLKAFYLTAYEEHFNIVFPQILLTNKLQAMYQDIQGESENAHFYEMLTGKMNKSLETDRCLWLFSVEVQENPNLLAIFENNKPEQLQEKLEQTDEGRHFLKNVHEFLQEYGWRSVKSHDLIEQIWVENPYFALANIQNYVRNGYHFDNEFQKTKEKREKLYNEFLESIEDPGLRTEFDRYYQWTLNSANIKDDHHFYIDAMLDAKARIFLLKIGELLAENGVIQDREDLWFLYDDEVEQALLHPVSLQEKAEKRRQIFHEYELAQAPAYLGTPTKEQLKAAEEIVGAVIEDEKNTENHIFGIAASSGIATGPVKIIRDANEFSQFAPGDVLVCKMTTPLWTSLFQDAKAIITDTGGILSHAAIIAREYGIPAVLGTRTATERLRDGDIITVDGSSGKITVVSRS

For `C[C@H]1CCCC(=O)CCC/C=C/c2cc(O)cc(O)c2C(=O)O1` [zearalenone], the Km was 18.2 µM.
